For 43 molecules, logP and logD results are on record in the SangsterLogP compilation.

Structures are written as SMILES.

Data set [1] can be described thus: method code SF-HPLC, from DOI: 10.1016/j.ejmech.2009.03.025, PMID: 19386398. Conditions: pH 7.4.
Data set [2] is described as follows: method code SF, from DOI: 10.1021/acs.jmedchem.6b00554, PMID: 27500461. The following applies: pH 7.4.
Assay in data set [3]: not given
This is another data set of the same source.

Assay in data set [4]: not given
The source holds these as a separate data set.

Data set [5] is described as follows: method code SF-RC, from DOI: 10.1267/nukl06010041, PMID: 16493513. Conditions: pH 7.4.
Assay in data set [6]: not given
This is another data set of the same source.

Data set [7] is described as follows: method code SF-AS, from Rainer, G.; Krüger, U.; Klemm, K. (1981). Synthesis and physico-chemical properties of lonazolac-Ca, a new antiphlogistic/antirheumatic agent. Arzneimittelforschung, 31(4)649-55.
Data set [8] in a line: method code SF-RC, from DOI: 10.1016/j.nucmedbio.2008.11.010, PMID: 19217534. Conditions: pH 7.4.
Data set [9] can be described thus: method code SF-HPLC, from DOI: 10.1016/0378-5173(85)90221-2. The following applies: pH 1.5.
Data set [10] can be described thus: method code SF-AS, from PMID: 582102. Conditions: pH 3.0.
Data set [11] can be described thus: method code SF-RC, from DOI: 10.17863/cam.48378, PMID: 23133799. Conditions: pH 7.4.
A short description of data set [12]: method code SF-AS, from PMID: 7306420. The following applies: pH 7.5.
Data set [13] is described as follows: method code SF-HPLC, from DOI: 10.1016/j.bmc.2009.06.014, PMID: 19586774. The following applies: pH 7.4.
Data set [14] is described as follows: method code SF, from Zhang, Y. (2010). Determination and Correlation of 1-Octanol/Water Partition Coefficients for Six Quinolones from 293.15 K to 323.15 K. Chemical Research in Chinese Universities, 26(4)636-639.
A short description of data set [15]: method code SF, from DOI: 10.1016/j.ecoenv.2008.09.011, PMID: 19560203.
Data set [16] in a line: method code SF-GLC, from DOI: 10.1584/jpestics.7.397.
Assay in data set [17]: not given
The source holds these as a separate data set.

Assay in data set [18]: not given
The source holds these as a separate data set.

A short description of data set [19]: method code SF, from DOI: 10.1016/j.ejps.2014.02.002, PMID: 24530864. The following applies: pH 7.4.
A short description of data set [20]: method code SF-AS, from DOI: 10.1002/jps.2600701116, PMID: 7299671. Conditions: pH 2.2.
The nature of data set [21]: method code SF-AS, from DOI: 10.1016/0048-3575(89)90091-6.
Assay in data set [22]: not given
This is another data set of the same source.

Assay in data set [23]: not given
This is another data set of the same source.

Data set [24] is described as follows: method code SF-AS, from DOI: 10.3390/molecules16097565, PMID: 21894089.
Data set [25] can be described thus: method code SF, from DOI: 10.1016/0223-5234(96)89550-x.
Assay in data set [26]: not given
This is another data set of the same source.

Assay in data set [27]: not given
This is another data set of the same source.

Data set [28] can be described thus: method code SF-AS, from DOI: 10.1016/s0928-0987(01)00170-1, PMID: 11500262. The following applies: pH 12.5.
Assay in data set [29]: not given
This is another data set of the same source.

Data set [30] in a line: method code SF-AS, from DOI: 10.1111/j.2042-7158.1989.tb06480.x, PMID: 2570831. Conditions: pH 7.4.
Assay in data set [31]: not given
The source holds these as a separate data set.

The nature of data set [32]: method code SF, from DOI: 10.1016/s0969-8051(99)00063-3, PMID: 10628565. Conditions: pH 7.4.
Assay in data set [33]: not given
This is another data set of the same source.

The nature of data set [34]: method code SF-HPLC, from DOI: 10.1016/0378-5173(94)90060-4. Conditions: pH 5.0.
A short description of data set [35]: method code SF-AS, from DOI: 10.1016/j.ejps.2014.12.009, PMID: 25513709. Conditions: pH 7.4.
Assay in data set [36]: not given
This is another data set of the same source.

Assay in data set [37]: not given
This is another data set of the same source.

Data set [38] can be described thus: method code SF-AS, from DOI: 10.1016/s0006-291x(75)80410-4, PMID: 1111518.
Data set [39] in a line: method code SF-RC, from DOI: 10.1021/es60172a005, PMID: 22280000.
Data set [40] in a line: method code SF-AS, from DOI: 10.1021/jm9800301, PMID: 9748357. Conditions: pH 7.4.
Assay in data set [41]: not given
This is another data set of the same source.

Data set [42] in a line: method code SF-RC, from DOI: 10.1021/jm701375u, PMID: 18307287. The following applies: pH 7.4.

`CCCCCCCCCCOc1ccc(C(=O)O)cc1` had a log partition coefficient (logP) of 5.77.

For `Cc1ccc(N=NC(C)C(=O)NCCc2ccc(O)cc2)cc1` (stereo not drawn), the logD in data set [1] came to 3.9. As for `Cc1sc(=NC(=O)C2C(C)(C)C2(C)C)n(CCCCF)c1C`, the logD in data set [2] is 3.22. The molecule `CN(C)CC/C=C1/c2ccccc2Sc2ccc(Cl)cc21` returned a logP in [3] of 5.18.

`c1ccc(Oc2ccccc2-c2ccccc2)cc1`: the logP in data set [4] is 5.66.

Consider `Clc1ccc(N2CCN(Cc3cnn4c(I)cccc34)CC2)cc1`, for which the logD in data set [5] was 2.36. Take `CCN1CCc2cc(S(=O)(=O)Nc3ccc(F)cc3F)cc(NC(C)=O)c21`: the logP in [6] came out at 1.4.

`O=C(O)Cc1cn(-c2ccccc2)nc1-c1ccc(Cl)cc1`: the logP in data set [7] was determined as 4.13. In the case of `N#Cc1ccc(C(c2ccc(C#N)cc2)n2cncn2)cc1`, the logD in [8] was 1.84. Molecule `CCCc1c2c(c(O)c3c(=O)cc(C(=O)O)oc13)CCCC2` displayed a logD in data set [9] of 4.4.

Turning to `COc1ccc(N(CCCC(=O)O)C(=O)c2ccc(Cl)cc2)cc1`, the logD in data set [10] is 2.7. Molecule `FCCOCCON=C1C=C(C#Cc2ccccn2)CCC1` returned a logD in [11] of 1.9. For the molecule `C#CCN1C(=O)CN=C(c2ccccc2)c2cc(Cl)ccc21`, the logD in data set [12] stood at 2.87.

In data set [13], `CCc1cc(Cl)cc2[nH]c(=O)c(-c3cccc(NC)c3)c(O)c12` returned a logD of 1.92. Take `CC1COc2c(N3CCN(C)CC3)c(F)cc3c(=O)c(C(=O)O)cn1c23` (stereo not drawn): in data set [14], the logP was -0.05. As to `CCOC(=O)C1=C[C@@H](OC(CC)CC)[C@H](NC(C)=O)[C@@H](N)C1`, the logP in data set [15] stood at 1.21. In data set [16], `CC(C)Oc1cccc(NC(=O)c2ccccc2C(F)(F)F)c1` showed a logP of 3.7.

Take `COCCN1C=CC(=C2C(=O)c3ccc(Cl)cc3C2=O)C=C1`: in data set [17], the logP came out at 2.78.

On to `COc1ccc(C2=CC(c3ccc(S(C)(=O)=O)cc3)C=NC2=O)cn1` (stereo not drawn), for which, in data set [18], the logP turned out to be 1.7. Regarding `Cc1ncc2n1-c1ccc(Cl)cc1C(c1ccccc1F)=NC2`, the logD in data set [19] was determined as 3.

On to `C=C(CC(=O)c1ccc(-c2ccccc2Cl)cc1)C(=O)O`, for which the logD in data set [20] is 3.32. In data set [21], `CC1(C)C(C=C2CCSC2=O)C1C(=O)OCc1ccccc1` (stereo not drawn) gave a logP of 4.02. In [22], `CN(C)CCc1c[nH]c2ccc(CS(=O)(=O)N3CCCC3)cc12` yielded a logP of 1.6.

In data set [23], `CC(CC(=O)O)(N=O)c1cc(Oc2ccc(C(F)(F)F)cc2Cl)ccc1[N+](=O)[O-]` (stereo not drawn) yielded a logP of 4.3.

In turn, `C[C@H](c1nc2ccc(F)cc2s1)N1C(=O)C(=O)N(c2ccccc2)C1=O` returned a logP in data set [24] of 1.51. Regarding `O=C(Nc1ccn(C2CSC(CO)O2)c(=O)n1)c1cnc2ccccc2c1` (stereo not drawn), the logP in data set [25] worked out at 0.87. As for `CCC(c1ccc(O)cc1)C(C(C)=O)c1ccc(O)cc1` (stereo not drawn), the logP in data set [26] was 3.1. Consider `CCCCC(CC)CP(=O)(O)CC(CC)CCCC` (stereo not drawn), for which, in [27], the logP worked out at 3.92. In turn, `CN(C)CCCc1ccccc1-c1ccccc1` showed a logD in data set [28] of 5.53. For `CCCn1c(=O)c2[nH]c(-c3ccc(S(=O)(=O)O)cc3)nc2n(CCC)c1=O`, the log partition coefficient (logP) in [29] was -0.03. The molecule `Nc1ncnc2c1ncn2C(c1ccccc1)c1ccccc1` returned a logD in data set [30] of 3.19. `O=C1/C(=C/c2ccccc2F)CCCc2ccccc21` gave a logP in data set [31] of 4.55. In turn, `CC(=O)OCC1C(OC(C)=O)C(OC(C)=O)C(OC(C)=O)CN1CCCI` (stereo not drawn) came in with a logD in data set [32] of 1.76.

For `CC[C@H](Oc1ccccc1)C(=O)N[C@@H]1C(=O)N2[C@@H]1SC(C)(C)[C@@H]2C(=O)O`, the logP in data set [33] was 2.58. `COC(=O)Nc1nc2cc(C(=O)c3ccccc3)ccc2n1C(=O)OC` registered a logD in data set [34] of 2.47. In the case of `COC1=CC(=O)CC(C)C12Oc1c(Cl)c(OC)cc(OC)c1C2=O` (stereo not drawn), the logD in data set [35] turned out to be 2.33. In turn, `N#Cc1ccc(CN2CCC(COC/C=C/I)CC2)cc1` showed a logP in [36] of 3.24. Turning to `CC(=O)Oc1c(C)cc(OCC(O)CNC(C)C)c(C)c1C` (stereo not drawn), the logP in data set [37] stood at 1.95. As to `C=CCN1CCN(C(=O)N=NC(=O)N2CCN(CC=C)CC2)CC1`, the logP in [38] is 0.79. Molecule `c1ccc2nc(-c3ccc4ccccc4n3)ccc2c1` yielded a logP in data set [39] of 4.31. For `O=C(NCc1ccc(O)cc1)C(=O)c1c[nH]c2ccc([N+](=O)[O-])cc12`, in data set [40], the logD was 2.67. For `Cc1ccc(CCNc2cc(-c3n[nH]c(N)n3)ccn2)cc1C`, the logP in data set [41] amounted to 3.08. As for `Brc1cccc(N2CCN(Cc3cnn4ccccc34)CC2)n1`, the logD in [42] was determined as 1.98.

By logP is commonly meant the decadic logarithm of the partition coefficient of the neutral form, usually between octanol and water. Low readings indicate a more hydrophilic compound, high ones a more lipophilic compound. As usually defined, the logD is lipophilicity at a set pH, counting ionised and neutral species.
